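The compound was tested at five concentrations on cells cultured in 96-well plates, with a 48-hour exposure period. GI50 = concentration required for 50% inhibition of growth.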 The source made the active and inactive calls. Cut-off read from the data, not from the text of the source: active = GI50 up to about 1.1 µM and inactive = higher.
Columns and labels:
Assay in all cases: NCI-60 cell line screen, 48 h
HOP-62 = test system: HOP-62
K562 = test system: K562
SK-MEL-5 = test system: SK-MEL-5
SN12C = test system: SN12C
OVCAR-5 = test system: OVCAR-5
MDA-N = test system: MDA-N
OVCAR-3 = test system: OVCAR-3
A498 = test system: A498
SK-OV-3 = test system: SK-OV-3
RXF 393 = test system: RXF 393
SF-539 = test system: SF-539
SW-620 = test system: SW-620
Hs-578T = test system: Hs-578T
HCC 2998 = test system: HCC 2998
SNB-19 = test system: SNB-19
NCI-H226 = test system: NCI-H226
MDA-MB-435 = test system: MDA-MB-435
HL-60 = test system: HL-60
MDA-MB-231 = test system: MDA-MB-231
M19-MEL = test system: M19-MEL

| SMILES | GI50 (HOP-62) | GI50 (K562) | GI50 (SK-MEL-5) | GI50 (SN12C) | GI50 (OVCAR-5) | GI50 (MDA-N) | GI50 (OVCAR-3) | GI50 (A498) | GI50 (SK-OV-3) | GI50 (RXF 393) | GI50 (SF-539) | GI50 (SW-620) | GI50 (Hs-578T) | GI50 (HCC 2998) | GI50 (SNB-19) | GI50 (NCI-H226) | GI50 (MDA-MB-435) | GI50 (HL-60) | GI50 (MDA-MB-231) | GI50 (M19-MEL) |
| --- | --- | --- | --- | --- | --- | --- | --- | --- | --- | --- | --- | --- | --- | --- | --- | --- | --- | --- | --- | --- |
| COC(=O)C(CCC(=O)CCl)N1C(=O)c2ccccc2C1=O (configuration not stated) | 16.1 µM (inactive) | 2.38 µM (inactive) | 4.95 µM (inactive) | 10.5 µM (inactive) | 15.9 µM (inactive) | 7.43 µM (inactive) | 11.6 µM (inactive) | 19.5 µM (inactive) | 16 µM (inactive) | 2.39 µM (inactive) | 12.2 µM (inactive) | 3.62 µM (inactive) | 12.6 µM (inactive) | 8.18 µM (inactive) | 18.7 µM (inactive) | 18.7 µM (inactive) | 10.1 µM (inactive) | 2.53 µM (inactive) | 12.6 µM (inactive) |  |
| CC1(CCc2ccccc2)CC1(Br)Br (configuration not stated) | 51.9 µM (inactive) | 19.5 µM (inactive) | 13.1 µM (inactive) | 18 µM (inactive) | 32.6 µM (inactive) | 32.7 µM (inactive) | 18 µM (inactive) | 39.6 µM (inactive) | > 100 µM (inactive) | 20.7 µM (inactive) | > 100 µM (inactive) | > 100 µM (inactive) | 42.9 µM (inactive) | 40.9 µM (inactive) | > 100 µM (inactive) | 24 µM (inactive) | 25.5 µM (inactive) | 21.5 µM (inactive) | 73.1 µM (inactive) |  |
| C#CCOCn1cnc2c(Cl)ncnc21 | > 100 µM (inactive) | 59.6 µM (inactive) | > 100 µM (inactive) | > 100 µM (inactive) | > 100 µM (inactive) |  | > 100 µM (inactive) | > 100 µM (inactive) | > 100 µM (inactive) |  | > 100 µM (inactive) | > 100 µM (inactive) |  | > 100 µM (inactive) | > 100 µM (inactive) | > 100 µM (inactive) |  |  |  | > 100 µM (inactive) |
| Brc1ccc2[nH]cc(-c3csc(-c4ccccn4)n3)c2c1 | 15.8 µM (inactive) | 5.38 µM (inactive) | 16.4 µM (inactive) | 14.4 µM (inactive) | > 51.1 µM (inactive) | 27.6 µM (inactive) | 9.31 µM (inactive) | 3.39 µM (inactive) | 33 µM (inactive) | 6.03 µM (inactive) | 25.3 µM (inactive) | 18.4 µM (inactive) | > 75.2 µM (inactive) | 8.75 µM (inactive) | 35 µM (inactive) | 11.6 µM (inactive) | 41.8 µM (inactive) | 26.5 µM (inactive) | 22.9 µM (inactive) |  |
| O=C(c1ccc(Cl)cc1)N1N=C(c2ccc(Cl)cc2)CC1(O)c1cc(F)c(Cl)cc1Cl (configuration not stated) | 32.1 µM (inactive) | 7.24 µM (inactive) | 68.2 µM (inactive) | 14.5 µM (inactive) | 28.2 µM (inactive) | 13.6 µM (inactive) | 21.8 µM (inactive) | 13.6 µM (inactive) | 62.4 µM (inactive) | 23.9 µM (inactive) | 69.3 µM (inactive) | 17.4 µM (inactive) | 39 µM (inactive) | 15.5 µM (inactive) | 14.6 µM (inactive) | 50.6 µM (inactive) | 16.7 µM (inactive) | 21.2 µM (inactive) | 34.2 µM (inactive) |  |
| CC(=O)C1=C(C)N2C(=NC3=C(CCc4ccccc43)C2c2ccc(F)cc2)S1 (configuration not stated) | 84.1 µM (inactive) | 31.3 µM (inactive) | 30.1 µM (inactive) | 51.3 µM (inactive) | > 100 µM (inactive) | 55.6 µM (inactive) | 67.9 µM (inactive) | 45.7 µM (inactive) | > 100 µM (inactive) | 52.6 µM (inactive) | 80.5 µM (inactive) | > 100 µM (inactive) | 42.8 µM (inactive) | 83.9 µM (inactive) | > 100 µM (inactive) | > 100 µM (inactive) | > 100 µM (inactive) | 28.4 µM (inactive) | 22.3 µM (inactive) |  |
| CCN(CC)CC/N=c1\c2cc(OC)ccc2[nH]c2c([N+](=O)[O-])ccc(NCCN(CC)CC)c12 | 1.18 µM (inactive) | 0.306 µM (active) | 1.57 µM (inactive) | 0.925 µM (active) | 1.57 µM (inactive) | 1.12 µM (inactive) | 1.92 µM (inactive) | 2.3 µM (inactive) | 3.12 µM (inactive) | 1.26 µM (inactive) | 1.06 µM (active) | 0.6 µM (active) | 1.46 µM (inactive) | 0.718 µM (active) | 0.794 µM (active) | 0.955 µM (active) | 1.88 µM (inactive) | 0.989 µM (active) | 0.966 µM (active) |  |
| O=C1CSC(c2c[nH]c3ccccc23)N1c1cccc(Cl)c1 (configuration not stated) | 54.7 µM (inactive) | 41 µM (inactive) | 40 µM (inactive) | 52.2 µM (inactive) | 73.8 µM (inactive) | 36.9 µM (inactive) | 27.9 µM (inactive) | 60.1 µM (inactive) | > 100 µM (inactive) | > 100 µM (inactive) | 61.1 µM (inactive) | 50.7 µM (inactive) | 38.4 µM (inactive) | 54.3 µM (inactive) | 68.2 µM (inactive) | 66.5 µM (inactive) | 33.6 µM (inactive) | 36.6 µM (inactive) | 24 µM (inactive) |  |

Reference: ChEMBL document CHEMBL1201862, “PubChem BioAssay data set” (2004)
